Test results published in US12447167B2, “GM-CSF-producing t-cell control agent and Th1/Th2 immune balance regulator” (National Center of Neurology and Psychiatry, priority 2014, dated 2025).

Assays:
[1] = Disposition after single oral dose, cynomolgus monkey; assay type: in vivo; conditions: male cynomolgus monkey, 10 mg/kg single oral, 14C-labeled, fasting
Protocol: (§1) After a single dose of compound 31 labeled with ^14C was orally administered at a predetermined dose to each of a male mouse, a male rat, and a male cynomolgus monkey under fasting conditions, the concentration in blood was measured after a lapse of a given time, and parameters such as maximum plasma concentration Cmax, time Tmax to reach the maximum plasma concentration, half-life t1/2, area under curve AUC0-∞, mean retention time MRT0-∞, and bioavailability BA were calculated. The concentration in blood in humans (normal subjects) was measured and each of the parameters was calculated, in the similar manner as above except that ^14C-unlabeled compound 31 was used.
(§2) In the tables, “N.D.” means not detected.

IL-17 = IL-17 expression level of sorted CD4-positive memory T-cells of MS patients (ELISA of culture supernatant); assay type: in vivo, human; conditions: 0.3 mg single oral
Protocol: A single dose of compound 31, which is a synthetic glycolipid of the present invention, described in the first aspect was orally administered to each of 2 MS patients (subjects) shown in Table 2 above after obtainment of informed consent. The dose was set to 0.3 mg per person.
Subsequently, T-cell subfractions were prepared from the peripheral blood of each subject by using the density gradient centrifugation method. First, a total of 20 mL of blood was collected from the vein of each subject 24 hours (1st day), 48 hours (2nd day), 72 hours (3rd day), 168 hours (7th day), and 192 hours (8th day) after the administration of compound 31 by using two 10-mL heparin sodium-containing vacuum blood collection tubes. For a control, 20 mL of blood was similarly collected from the vein of each subject one day before the administration of compound 31.
The collected PBMCs were stained with antibodies by the following method. First, 10 μL of a solution consisting of 20 μL of MACS buffer, 0.25 μL of APC-Cy7-anti-CD3 antibody (BioLegend, Inc.), 1 μL of PB-anti-CD4 antibody (BioLegend, Inc.), 1 μL of PerCP-Cy5.5-anti-CD45RA antibody (BioLegend, Inc.), and 1 μL of PC7-anti-CD56 antibody (Beckman Coulter, Inc.) was added to 6×10^6 cells of PBMCs, thoroughly mixed by vortexing, and then left on ice for 20 minutes. CD56 is a detection marker of cells having NK activity, and CD3^−CD56^− cells indicate being antigen-presenting cells (APCs). […]
mCD4T and APC obtained by the sorting were each suspended in a medium consisting of 500 mL of RPMI1640 (GIBCO/Thermo Fisher Scientific Inc.), 5 mL of glutamine (200 mM, Wako Pure Chemical Industries, Ltd.), 5 mL of Pen/strep (10,000 U/mL, GIBCO/Thermo Fisher Scientific Inc.), 0.5 mL of 2-mercaptoethanol (GIBCO/Thermo Fisher Scientific Inc.), and 50 mL of 10% (v/v) Cellect FETAL BOVINE SERUM (MP Biomedicals, LLC), and the number of cells was measured. […]
After the culture, a culture supernatant was collected, and IFN-γ, IL-4, IL-17, and GM-CSF were measured by the ELISA method. […]

[2] = Disposition after single oral dose, mouse; assay type: in vivo; design: concentration in blood: unit not given here; conditions: male mouse, 5 mg/kg single oral, 14C-labeled, fasting
Protocol: as §1, §2

What does the source list for `CCCCCCCCCCCCCCCCCCCCCCCC(=O)NC(COC1OC(CO)C(O)C(O)C1O)[C@H](O)C(O)CCCCC` (stereo in doubt) [compound 31, (2S,3S,4R)-1-O-(α-D-galactosyl)-2-(N-tetracosanoylamino)-1,3,4-nonanetriol]?
AUC(0-inf) ([1]; blood): 2380 ng·h/mL; AUC(0-t) ([1]; blood): 2260 ng·h/mL; half-life ([1]; blood): 39.2 h; MRT inf ([1]; blood, read-out: MRT0-∞): 60.9 h; BA [1]: 0.11%; Rate of absorption [1]: 0.41%; concentration in blood ([1]; 4 h): 1.92; concentration in blood ([1]; 8 h): 9.59; concentration in blood ([1]; 12 h): 33.4; concentration in blood ([1]; 24 h): 35.2; concentration in blood ([1]; 48 h): 26.5; concentration in blood ([1]; 72 h): 13; concentration in blood ([1]; 96 h): 7.1; concentration in blood ([1]; 120 h): 4.21; concentration in blood ([1]; 144 h): 2.83; concentration in blood ([1]; 168 h): 2.05; Cmax ([1]; plasma): 39.4 ng/mL; Tmax ([1]; plasma): 28 h; IL-17 expression level (IL-17; day 8, MBP stimulation, day −1 value 916.90): 491.24; IL-17 expression level (IL-17; day 8, OVA stimulation, day −1 value 666.56): 158.50; change of expression level of IL-17 (IL-17; day8 vs day-1): decreased; AUC(0-inf) ([2]; blood): 2920 ng·h/mL; AUC(0-t) ([2]; blood): 2900 ng·h/mL; half-life ([2]; blood): 11 h; MRT inf ([2]; blood, read-out: MRT0-∞): 15.4 h; BA [2]: 1.01%; Rate of absorption [2]: 1.36%; concentration in blood ([2]; 4 h): 46.5; concentration in blood ([2]; 8 h): 209; concentration in blood ([2]; 12 h): 142; concentration in blood ([2]; 24 h): 33; concentration in blood ([2]; 48 h): 5.21; concentration in blood ([2]; 72 h): 1.62; Cmax ([2]; plasma): 209 ng/mL; Tmax ([2]; plasma): 8 h
